≈ marks a conversion by molar mass, not a printed value. Values belong to the molecule of their own block, whether it stands above or below them.
Tests used:
[1] = test system: RV-1A, RV-2 or Cox A21; test: Summary of HeLa tissue culture testing against the test viruses; format: cell-based, rhinovirus types 1A and 2, Coxsackie A21 virus; conditions: for antiviral activity in tissue culture: active on RV-1A and RV-2 at a test concentration equivalent to the cytotoxic concentration
Procedure: (§1) Monolayered HeLa cells in 16 millimeter (mm) tissue culture dishes were treated with 1 ml of culture medium (Eagles medium supplemented with fetal calf serum) containing subject compound at an appropriate concentration or containing no compound at all. Culture media such as those described herein are more fully described in standard texts, as for example, Kuchler's Biochemical Methods in Cell Culture and Virology, Dowden, Hutchinson and Ross, Inc., Stroudsberg, PA (1977). Following treatment, cells were challenged with 0.05 ml of rhinovirus type 1A (RV-1A), rhinovirus type 2 (RV-2) or Coxsackie A21 virus (Cox A21) in culture medium. Some of the compounds were also tested against rhinovirus type 5 (RV-5), rhinovirus type 8 (RV-8) or rhinovirus type 64 (RV-64). Cell controls received no viruses.

[2] = test system: Rhinovirus Type 74; test: Inhibition of cytopathic effect in WI-38 cell culture tubes, rhinovirus type 74; format: cell-based; conditions: Enterovirus; 25 μg/ml; WI-38 cells; read-out: Inhibition grade, Rhinovirus Type 74
Procedure: (§2) The test compound was dissolved in an appropriate solvent (generally dimethyl sulfoxide) and incubated at 56° C. for at least 15 minutes and this solution was then used to prepare various test solutions having the desired concentration of test compound in preheated WI maintenance medium (49% Eagles, 49% medium 199, 2% fetal calf serum and antibiotics).
(§3) Triplicate cell culture tubes (WI-38 human embryonic lung cell culture tubes) were fed with 1 ml of medium containing the compound at specified concentrations and inoculated with 3-300 TCID50 (3-300 times the tissue culture infective dose 50, i.e., the dose required to infect 50% of the cell cultures tested). Simultaneous viral titrations were performed. The tissue cultures were supplemented with fresh medium when necessary (around 3-4 days) until viral titrations were completed.
(§4) The cell culture tubes were examined dialy for cytopathic effect. […] Comparisons were made at that time with the percentage of cell sheet destruction in tubes containing virus compound mixtures. Observed differences of 75% or more were graded "+", 74-50% as "±", and less than 50% as "-" inhibition.

[3] = test system: Rhinovirus Type 75; test: Inhibition of cytopathic effect in WI-38 cell culture tubes, rhinovirus type 75; format: cell-based; conditions: Enterovirus; 25 μg/ml; WI-38 cells; read-out: Inhibition grade, Rhinovirus Type 75
Procedure: as §2, §3, §4

[4] = test system: Rhinovirus Type 64; test: Inhibition of cytopathic effect in WI-38 cell culture tubes, rhinovirus type 64; format: cell-based; conditions: Enterovirus; 25 μg/ml; WI-38 cells; read-out: Inhibition grade, Rhinovirus Type 64
Procedure: as §2, §3, §4

[5] = test system: Cox A21; test: Single Oral Dose test in mice challenged IP with Cox A21; format: in vivo, Swiss male mice; conditions: 600 mg/kg P.O. 3 h after IP challenge; >3.84 significant (95% confidence level)
How it was run: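 A single P.O. treatment with compound suspended in 0.5% hydroxypropyl methylcellulose was given 3 h after intraperitoneal Cox A21 challenge at a normally lethal dose in 8-12 g male Swiss mice. Survival followed 7-10 days; significance versus vehicle-treated infected mice by modified Mantel-Haenzel chi-square (>3.84, 95% level).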

[6] = test system: Hanks Untyped; test: Inhibition of cytopathic effect in WI-38 cell culture tubes, Hanks Untyped; format: cell-based, rhinovirus; conditions: Enterovirus; 25 μg/ml; WI-38 cells; read-out: Inhibition grade, Hanks Untyped
Procedure: as §2, §3, §4

[7] = test system: rhinovirus type 8 (RV-8); test: Tissue culture testing, rhinovirus type 8 in HeLa cells; format: cell-based; conditions: Enterovirus, 48 and 72 hours, NA = not active at the standard test conditions, read-out: RV-8: lowest concentration of the compound necessary to cause a 50 percent reduction in cytopathic effect
Procedure: as §1
(§5) ^2 Lowest concentration of the compound (μg/ml) necessary to cause

[8] = test system: Rhinovirus Type 13; test: Inhibition of cytopathic effect in WI-38 cell culture tubes, rhinovirus type 13; format: cell-based; conditions: Enterovirus; 25 μg/ml; WI-38 cells; read-out: Inhibition grade, Rhinovirus Type 13
Procedure: as §2, §3, §4

[9] = test system: rhinovirus type 1A (RV-1A); test: Tissue culture testing, rhinovirus type 1A in HeLa cells; format: cell-based; conditions: Enterovirus, 48 and 72 hours, NA = not active at the standard test conditions, read-out: RV-1A: lowest concentration of the compound necessary to cause a 50 percent reduction in cytopathic effect
How it was run: (§6)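 Treatment preceded infection: HeLa cell monolayers took up compound in Eagle's medium containing fetal calf serum, and virus was then applied. Uninfected cultures and cultures without compound acted as references.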

[10] = Cytotoxicity in tissue culture testing (HeLa monolayers); format: cell-based; conditions: human; HeLa cells; observed at 48 and 72 hours post-treatment; read-out: Cytotoxicity: concentration of the compound found to be toxic to the cell
How it was run: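 Compound in Eagle's medium plus fetal calf serum was applied to monolayered HeLa cells; cultures were then infected with RV-1A, RV-2 or Coxsackie A21, with RV-5, RV-8 or RV-64 for some compounds. Controls received no compound or no virus.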

[11] = test system: Rhinovirus Type 59; test: Inhibition of cytopathic effect in WI-38 cell culture tubes, rhinovirus type 59; format: cell-based; conditions: Enterovirus; 25 μg/ml; WI-38 cells; read-out: Inhibition grade, Rhinovirus Type 59
Procedure: as §2, §3, §4

[12] = test system: Rhinovirus Type 56; test: Inhibition of cytopathic effect in WI-38 cell culture tubes, rhinovirus type 56; format: cell-based; conditions: Enterovirus; 25 μg/ml; WI-38 cells; read-out: Inhibition grade, Rhinovirus Type 56
Procedure: as §2, §3, §4

[13] = test system: Rhinovirus Type 29; test: Inhibition of cytopathic effect in WI-38 cell culture tubes, rhinovirus type 29; format: cell-based; conditions: Enterovirus; 25 μg/ml; WI-38 cells; read-out: Inhibition grade, Rhinovirus Type 29
Procedure: as §2, §3, §4

[14] = test system: Rhinovirus Type 58; test: Inhibition of cytopathic effect in WI-38 cell culture tubes, rhinovirus type 58; format: cell-based; conditions: Enterovirus; 25 μg/ml; WI-38 cells; read-out: Inhibition grade, Rhinovirus Type 58
Procedure: as §2, §3, §4

[15] = test system: Rhinovirus Type 21; test: Inhibition of cytopathic effect in WI-38 cell culture tubes, rhinovirus type 21; format: cell-based; conditions: Enterovirus; 25 μg/ml; WI-38 cells; read-out: Inhibition grade, Rhinovirus Type 21
Procedure: as §2, §3, §4

[16] = test system: Rhinovirus Type 4; test: Inhibition of cytopathic effect in WI-38 cell culture tubes, rhinovirus type 4; format: cell-based; conditions: Enterovirus; 25 μg/ml; WI-38 cells; read-out: Inhibition grade, Rhinovirus Type 4
Procedure: as §2, §3, §4

[17] = test system: Coxsackie A21 virus (Cox A21); test: Tissue culture testing, Coxsackie A21 virus in HeLa cells; format: cell-based; conditions: 48 and 72 hours, NA = not active at the standard test conditions, read-out: Cox A21: lowest concentration of the compound necessary to cause a 50 percent reduction in cytopathic effect
How it was run: as §6

[18] = test system: rhinovirus type 2 (RV-2); test: Tissue culture testing, rhinovirus type 2 in HeLa cells; format: cell-based; conditions: Enterovirus, 48 and 72 hours, NA = not active at the standard test conditions, read-out: RV-2: lowest concentration of the compound necessary to cause a 50 percent reduction in cytopathic effect
How it was run: as §6

[19] = test system: Rhinovirus Type 8; test: Inhibition of cytopathic effect in WI-38 cell culture tubes, rhinovirus type 8; format: cell-based; conditions: Enterovirus; 25 μg/ml; WI-38 cells; read-out: Inhibition grade, Rhinovirus Type 8
Procedure: as §2, §3, §4

[20] = test system: Rhinovirus Type 17; test: Inhibition of cytopathic effect in WI-38 cell culture tubes, rhinovirus type 17; format: cell-based; conditions: Enterovirus; 25 μg/ml; WI-38 cells; read-out: Inhibition grade, Rhinovirus Type 17
Procedure: as §2, §3, §4

[21] = test system: Rhinovirus Type 81; test: Inhibition of cytopathic effect in WI-38 cell culture tubes, rhinovirus type 81; format: cell-based; conditions: Enterovirus; 25 μg/ml; WI-38 cells; read-out: Inhibition grade, Rhinovirus Type 81
Procedure: as §2, §3, §4

[22] = test system: Rhinovirus Type 39; test: Inhibition of cytopathic effect in WI-38 cell culture tubes, rhinovirus type 39; format: cell-based; conditions: Enterovirus; 25 μg/ml; WI-38 cells; read-out: Inhibition grade, Rhinovirus Type 39
Procedure: as §2, §3, §4

[23] = test system: Rhinovirus Type 10; test: Inhibition of cytopathic effect in WI-38 cell culture tubes, rhinovirus type 10; format: cell-based; conditions: Enterovirus; 25 μg/ml; WI-38 cells; read-out: Inhibition grade, Rhinovirus Type 10
Procedure: as §2, §3, §4

[24] = test system: Rhinovirus Type 68; test: Inhibition of cytopathic effect in WI-38 cell culture tubes, rhinovirus type 68; format: cell-based; conditions: Enterovirus; 25 μg/ml; WI-38 cells; read-out: Inhibition grade, Rhinovirus Type 68
Procedure: as §2, §3, §4

[25] = test system: Rhinovirus Type 6; test: Inhibition of cytopathic effect in WI-38 cell culture tubes, rhinovirus type 6; format: cell-based; conditions: Enterovirus; 25 μg/ml; WI-38 cells; read-out: Inhibition grade, Rhinovirus Type 6
Procedure: as §2, §3, §4

[26] = test system: Rhinovirus Type 60; test: Inhibition of cytopathic effect in WI-38 cell culture tubes, rhinovirus type 60; format: cell-based; conditions: Enterovirus; 25 μg/ml; WI-38 cells; read-out: Inhibition grade, Rhinovirus Type 60
Procedure: as §2, §3, §4

[27] = test system: rhinovirus type 5 (RV-5); test: Tissue culture testing, rhinovirus type 5 in HeLa cells; format: cell-based; conditions: Enterovirus, 48 and 72 hours, NA = not active at the standard test conditions, read-out: RV-5: lowest concentration of the compound necessary to cause a 50 percent reduction in cytopathic effect
Procedure: as §1, §5

[28] = test system: Rhinovirus Type 19; test: Inhibition of cytopathic effect in WI-38 cell culture tubes, rhinovirus type 19; format: cell-based; conditions: Enterovirus; 25 μg/ml; WI-38 cells; read-out: Inhibition grade, Rhinovirus Type 19
Procedure: as §2, §3, §4

[29] = test system: Coxsackie A21 virus; test: Continuous Oral Feeding test in mice challenged IP with Coxsackie A21 virus; format: in vivo; conditions: po, 0.06 % in diet, 240 h
How it was run: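 Activity judged by chi-square on 10-day deaths versus untreated controls, with values above 3.84 counted active at 95% confidence. The IP challenge (0.2 ml/mouse, HeLa-grown virus, 80 to 100% lethal in 8 to 12 g mice) came on day 1, after diet containing 0.06% (weight percent) compound began on day 0.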

SMILES: CCS(=O)(=O)c1cccnc1Oc1ccc(Cl)c(Cl)c1 [2-(3,4-dichlorophenoxy)-3-(ethylsulfonyl)pyridine]
antiviral activity in tissue culture [1]: only marginally active

SMILES: CS(=O)(=O)c1cccc(Oc2ccc(Br)cc2)n1 [2-(4-bromophenoxy)-6-(methylsulfonyl)pyridine]
antiviral activity in tissue culture [1]: only marginally active

SMILES: CS(=O)(=O)c1ccc(Oc2ccc(Cl)c(Cl)c2)nc1 [Example 40, 2-(3,4-dichlorophenoxy)-5-(methylsulfonyl)pyridine]
inhibition at 25 µg/mL [2]: ≥ 75%
inhibition at 25 µg/mL [3]: < 50%
inhibition at 25 µg/mL [4]: ≥ 75%
Single Oral Dose X^2 (chi-square, deaths vs virus control) [5]: 22.807
inhibition at 25 µg/mL [6]: ≥ 75%
EC50 [7]: ~12.5 µg/mL (≈ 39.3 µM)
inhibition at 25 µg/mL [8]: ≥ 75%
EC50 [9]: ≤ 0.31 µg/mL
MCC [10]: 50 µg/mL
inhibition at 25 µg/mL [11]: 50 to 74%
inhibition at 25 µg/mL [12]: ≥ 75%
inhibition at 25 µg/mL [13]: ≥ 75%
inhibition at 25 µg/mL [14]: ≥ 75%
inhibition at 25 µg/mL [15]: ≥ 75%
inhibition at 25 µg/mL [16]: < 50%
EC50 [17]: ≤ 6.25 µg/mL
EC50 [18]: 0.625 µg/mL (≈ 1.96 µM)
inhibition at 25 µg/mL [19]: < 50%
inhibition at 25 µg/mL [20]: ≥ 75%
inhibition at 25 µg/mL [21]: ≥ 75%
inhibition at 25 µg/mL [22]: ≥ 75%
inhibition at 25 µg/mL [23]: ≥ 75%
inhibition at 25 µg/mL [24]: ≥ 75%
inhibition at 25 µg/mL [25]: < 50%
inhibition at 25 µg/mL [26]: 50 to 74%
EC50 [27]: 25 µg/mL (≈ 78.6 µM)
inhibition at 25 µg/mL [28]: ≥ 75%

SMILES: CC(C)S(=O)(=O)c1ccc(Oc2ccc(C(=O)c3ccccc3)cc2)nc1 [Example 51]
Single Oral Dose X^2 (chi-square, deaths vs virus control) [5]: 3.085
EC50 [9]: 4 µg/mL (≈ 10.5 µM)
MCC [10]: 4 µg/mL
EC50 [18]: 2 µg/mL (≈ 5.24 µM)
antiviral activity in initial tissue culture testing ([1]; initial test): did not show activity against the test viruses
antiviral activity on retest ([1]; retest (data in Table 3), RV-1A and RV-2): did show activity against RV-1A and RV-2
Continuous Oral Feeding X^2 (chi-square, deaths vs control) [29]: 17.705

EC50 [9]: 50 µg/mL (≈ 136 µM)
EC50 [18]: ~50 µg/mL (≈ 136 µM)
SMILES: CCS(=O)(=O)c1cccnc1Oc1ccc(C(=O)c2ccccc2)cc1 [Example 74]
MCC [10]: 50 µg/mL
antiviral activity in tissue culture [1]: only marginally active
